Assay results published in the supplement of paper PMC7021759.
± gives the standard deviation of the averaged measurements.

System: SK-N-MM (SKNMM-MYCN, doxycycline-inducible MYCN)
Assay: area under dose-response curve (CellTiter-Glo viability normalised to plate controls) (AUC (arbitrary units)); higher = more loss of viability; extreme values may be limits of the assay
How it was run: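 Compounds were pin-transferred as 10-point 1:3 dilution series (890-fold stock dilution) onto SK-N-MM cells with doxycycline-inducible MYCN, plated at 1250 cells/100 μL in 96-well plates and switched about 24 h after plating to medium with or without doxycycline two days before dosing. Dosing was repeated on day 4, and CellTiter-Glo luminescence was read 3 or 8 days after drugging. Area under the dose-response curve came from log2 signals normalised to the positive and negative controls on each plate.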

[1] = MYCN induction (doxycycline): +doxycycline (MYCN induced), time after drugging: 3 days
[2] = MYCN induction (doxycycline): +doxycycline (MYCN induced), time after drugging: 8 days
[3] = MYCN induction (doxycycline): no doxycycline (MYCN not induced), time after drugging: 3 days
[4] = MYCN induction (doxycycline): no doxycycline (MYCN not induced), time after drugging: 8 days

SMILES	area under dose-response curve [1]	area under dose-response curve [2]	area under dose-response curve [3]	area under dose-response curve [4]
Nc1nc(=O)n([C@H]2C[C@H](O)[C@@H](CO)O2)cc1F [5-FLUORODEOXYCYTIDINE]	23.7	184	9.38	58.5
CC[C@H](Nc1nc(NCc2cnc(C)cc2C)c2ncn(C(C)C)c2n1)[C@@H](C)O [CYC-065]	66.2	165	45.7	160
CC1CS(=O)(=O)CCN1/N=C/c1ccc([N+](=O)[O-])o1 (stereo not drawn) [NIFURTIMOX]	3.58	0	0	0.144
CCN(CC)CCNC(=O)c1c(C)[nH]c(/C=C2\C(=O)Nc3ccc(F)cc32)c1C [SUNITINIB]	3.49	132	3.64	140
CNC(=O)c1ccc(N2C(=S)N(c3ccc(C#N)c(C(F)(F)F)c3)C(=O)C2(C)C)cc1F [ENZALUTAMIDE]	0	0	0	0
CN1CCCN(C(=O)c2cccc(-c3ccc(/C=C4/C(=O)Nc5ccc(Cl)cc54)o3)c2)CC1 [CX-6258]	165	206	166	202
O=C(Nc1c[nH]nc1-c1nc2ccc(CN3CCOCC3)cc2[nH]1)NC1CC1 [AT9283]	91	206	42.9	145
Nc1nc(Cl)nc2c1ncn2[C@@H]1O[C@H](CO)[C@@H](O)[C@@H]1F [CLOFARABINE]	67.5	248	43	141
Cc1cnc(Nc2ccc(OCCN3CCCC3)cc2)nc1Nc1cccc(S(=O)(=O)NC(C)(C)C)c1 [FEDRATINIB]	109	176	102	151
CN(C)CCCNc1c2ccccc2nc2c1[nH]c1ccccc12 [SYUIQ-5]	219	262	196	225
Cc1[nH]c2ccccc2c1CCNCc1ccc(/C=C/C(=O)NO)cc1 [PANOBINOSTAT]	171 ± 12	306 ± 5.3	114 ± 27	287 ± 4.4
O=c1[nH]c(=O)n([C@H]2C[C@H](O)[C@@H](CO)O2)cc1F [FLOXURIDINE]	23.4	165	11.8	66.3
CN(C)c1ccc2nc3ccc(=[N+](C)C)cc-3sc2c1 [METHYLENE BLUE]	48.8	152	45.6	75.9
Clc1ccc(C(c2ccccc2Cl)C(Cl)Cl)cc1 (stereo not drawn) [MITOTANE]	0	0	0	0
C/C=C1\NC(=O)[C@H]2CSSCC/C=C/[C@H](CC(=O)N[C@H](C(C)C)C(=O)N2)OC(=O)[C@H](C(C)C)NC1=O [ROMIDEPSIN]	231	416	165	398
CN(C)C1CCN(C(=O)c2ccc(NC(=O)Nc3ccc(-c4nc(N5CCOCC5)nc(N5CCOCC5)n4)cc3)cc2)CC1 [GEDATOLISIB]	39.4	0	27.4	47.7
CO[C@@H]1[C@H](N(C)C(=O)c2ccccc2)C[C@H]2O[C@]1(C)n1c3ccccc3c3c4c(c5c6ccccc6n2c5c31)C(=O)NC4 [MIDOSTAURIN]	59.7	122	65.6	127
OCCN1CCN(CCCN2c3ccccc3Sc3ccc(C(F)(F)F)cc32)CC1 [FLUFENAZINE]	0	0	0	0
CN[C@H]1CN(c2ccc3c(=O)c(C(=O)O)cn(-c4nccs4)c3n2)C[C@@H]1OC [VOSAROXIN]	39.3	92.8	16.4	48.5
CC1(COc2ccc3c(c2)ncn3-c2ccc3cccc(N4CCC(N)CC4)c3n2)COC1 [CRENOLANIB]	0	136	0	146

SMILES	area under dose-response curve [1]	area under dose-response curve [2]	area under dose-response curve [3]	area under dose-response curve [4]
CC(=O)c1ccc2c(c1)c1cc(C(C)=O)ccc1n2CCNC(C)C [CBL-0137]	116	176	94.2	172
Cc1cnc(CNC(=O)c2c(=O)c3ccc(N4CCCN(C)CC4)nc3n3c2sc2ccccc23)cn1 [CX-5461]		11.3	11.7	
CCC1(c2ccc(N)cc2)CCC(=O)NC1=O (stereo not drawn) [AMINOGLUTETHIMIDE]	0	0	0	
CCCS(=O)(=O)Nc1ccc(F)c(C(=O)c2c[nH]c3ncc(-c4ccc(Cl)cc4)cc23)c1F [VEMURAFENIB]	18.3	24.6	15.8	0
Cc1nc(=O)c2cc(CN(C)c3ccc(C(=O)N[C@@H](CCC(=O)O)C(=O)O)s3)ccc2[nH]1 [RALTITREXED]	22.3	166	6.42	63.1
CON(C)C(=O)N1N=C(c2cc(F)ccc2F)S[C@@]1(CCCN)c1ccccc1 [ARRY-520]	218	288	108	154
CC(=O)O[C@H]1CC[C@@]2(C)C(=CC[C@@H]3[C@@H]2CC[C@]2(C)C(c4cccnc4)=CC[C@@H]32)C1 [ABIRATERONE ACETATE]	8.14	0	6.74	0.368
CC[C@]1(O)C[C@H]2CN(CCc3c([nH]c4ccccc34)[C@@](C(=O)OC)(c3cc4c(cc3OC)N(C=O)[C@H]3[C@@](O)(C(=O)OC)[C@H](OC(C)=O)[C@]5(CC)C=CCN6CC[C@]43[C@@H]65)C2)C1 [VINCRISTINE]	185	253	89.2	146
Cc1cc(Nc2cc(N3CCN(C)CC3)nc(/C=C/c3ccccc3)n2)n[nH]1 [ENMD-2076]	86	133	0.719	111
CC[C@@]1(O)C(=O)OCc2c1cc1n(c2=O)Cc2cc3c(CN(C)C)c(O)ccc3nc2-1 [TOPOTECAN]	139	216	68.5	105
Cn1nccc1Nc1nccc(-c2ccn([C@H](CO)c3ccc(Cl)c(F)c3)c(=O)c2)n1 [GDC-0994]	0	0	2.52	0
NC(=O)Nc1cc(-c2cccc(F)c2)sc1C(=O)N[C@H]1CCCNC1 [AZD-7762]	139	244	75.8	141
COc1cc2nccc(Oc3ccc(NC(=O)Nc4cc(C)on4)c(Cl)c3)c2cc1OC [TIVOZANIB]	0	0	0	0
COc1cc2nccc(Oc3ccc(NC(=O)C4(C(=O)Nc5ccc(F)cc5)CC4)cc3)c2cc1OC [CABOZANTINIB]	0	0	0	0
COC(=O)[C@]12CCC(C)(C)C[C@H]1[C@H]1C(=O)C=C3[C@@]4(C)C=C(C#N)C(=O)C(C)(C)[C@@H]4CC[C@@]3(C)[C@]1(C)CC2 [BARDOXOLONE METHYL]	212	243	216	226
CC/C(=C(\c1ccccc1)c1ccc(OCCN(C)C)cc1)c1ccccc1 [TAMOXIFEN]	0	0	0	0
Cc1cc(C2CCCCC2)n(O)c(=O)c1 [CICLOPIROX]	0	97.9	15.5	41.6
O=C1NC(=O)[C@@H](c2cn3c4c(cccc24)CCC3)[C@@H]1c1c[nH]c2ccccc12 [TIVANTINIB]	102	135	53.3	77.2
O=C(NOC[C@H](O)CO)c1ccc(F)c(F)c1Nc1ccc(I)cc1F	28.9	92.1	21.5	84.4
